Laboratory results taken from patent US12281122B1, “PI3K inhibitors” (Cogent Biosciences, Inc., priority 2023, dated 2025).

What was measured:
[1] = tested on: SKBR3 (PI3Kα-Wild Type) cell line; assay: HTRF phospho-AKT(S473) cell assay in SKBR3 cells; assay type: cell-based, human; conditions: Homo sapiens, SK-BR-3, 2 hours compound incubation, PDGF-BB stimulated
Method in brief: (§1)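 pAKT(S473) in lysates read by HTRF after a 2 h, 37 °C compound exposure (12-point 1:3 series, max 0.5% DMSO). SKBR3 (wild type, top 10 μM) received 70 ng/ml PDGF-BB during the final 15 min; T47D (H1047R, top 5 μM) was unstimulated. IC50 values derived from the dose-response.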

[2] = tested on: T47D (PI3Kα-H1047R) cell line; assay: HTRF phospho-AKT(S473) cell assay in T47D cells; assay type: cell-based, human; conditions: Homo sapiens, 2 hours compound incubation
Method in brief: as §1

[3] = HTRF phospho-AKT(S473), SKBR3 (PI3Kα-Wild Type) cells
[4] = HTRF phospho-AKT(S473), T47D (PI3Kα-H1047R) cells
[5] = SKBR3 (PI3Kα-Wild Type) cell line, phospho-AKT(S473) HTRF
[6] = T47D (PI3Kα-H1047R) cell line, phospho-AKT(S473) HTRF

SMILES | IC50 [1, 3] [nM] | IC50 [2, 4] [nM] | IC50 [1, 5] [nM] | IC50 [2, 6] [nM]
Cc1cc([C@@H](C)Nc2ccc(Cl)nc2C(=O)NS(C)(=O)=O)c2nc(-c3cc(F)c4cn(C)nc4c3)n(C)c(=O)c2c1 [Compound 824, (R)-6-chloro-3-((1-(2-(4-fluoro-2-methyl-2H-indazol-6-yl)-3,6-dimethyl-4-oxo-3,4-dihydroquinazolin-8-yl)ethyl)amino)-N-(methylsulfonyl) picolinamide] | 1000 to 5000 | < 250 |  | 
Cc1cc([C@@H](C)Nc2ccc(Cl)nc2C(=O)NS(C)(=O)=O)c2nc([C@H]3[C@@H]4CN(c5ncc(Cl)cn5)C[C@@H]43)n(C)c(=O)c2c1 [Compound 825, 6-chloro-3-(((R)-1-(2-((1R,5S,6r)-3-(5-chloropyrimidin-2-yl)-3-azabicyclo[3.1.0]hexan-6-yl)-3,6-dimethyl-4-oxo-3,4-dihydroquinazolin-8-yl)ethyl)amino)-N-(methylsulfonyl) picolinamide] | ≥ 5000 | 1000 to 5000 |  | 
Cc1cc([C@@H](C)Nc2ccc(Cl)nc2C(=O)NS(C)(=O)=O)c2nc([C@H]3[C@@H]4CN(c5nccc(C)n5)C[C@@H]43)n(C)c(=O)c2c1 [Compound 826, 6-chloro-3-(((R)-1-(3,6-dimethyl-2-((1R,5S,6r)-3-(4-methylpyrimidin-2-yl)-3-azabicyclo[3.1.0]hexan-6-yl)-4-oxo-3,4-dihydroquinazolin-8-yl)ethyl)amino)-N-(methylsulfonyl) picolinamide] | ≥ 5000 | 250 to 500 |  | 
Cc1cc([C@@H](C)Nc2ccc(Cl)nc2C(=O)NS(C)(=O)=O)c2nc([C@H]3[C@@H]4CN(c5ncc(F)cn5)C[C@@H]43)n(C)c(=O)c2c1 [Compound 827, 6-chloro-3-(((R)-1-(2-((1R,5S,6r)-3-(5-fluoropyrimidin-2-yl)-3-azabicyclo[3.1.0]hexan-6-yl)-3,6-dimethyl-4-oxo-3,4-dihydroquinazolin-8-yl)ethyl)amino)-N-(methylsulfonyl) picolinamide] | ≥ 5000 | 500 to 1000 |  | 
Cc1cc([C@@H](C)Nc2ccc(Cl)nc2C(=O)NS(C)(=O)=O)c2nc([C@H]3[C@@H]4CN(c5cnc(C)c(F)c5)C[C@@H]43)n(C)c(=O)c2c1 [Compound 828, 6-chloro-3-(((R)-1-(2-((1R,5S,6r)-3-(5-fluoro-6-methylpyridin-3-yl)-3-azabicyclo[3.1.0]hexan-6-yl)-3,6-dimethyl-4-oxo-3,4-dihydroquinazolin-8-yl)ethyl)amino)-N-(methylsulfonyl) picolinamide] | ≥ 5000 | 500 to 1000 |  | 
Cc1cc([C@@H](C)Nc2ccc(Cl)nc2C(=O)NS(C)(=O)=O)c2nc([C@H]3[C@@H]4CN(c5ccc(C)nc5)C[C@@H]43)n(C)c(=O)c2c1 [Compound 829, 6-chloro-3-(((R)-1-(3,6-dimethyl-2-((1R,5S,6r)-3-(6-methylpyridin-3-yl)-3-azabicyclo[3.1.0]hexan-6-yl)-4-oxo-3,4-dihydroquinazolin-8-yl)ethyl)amino)-N-(methylsulfonyl) picolinamide] | ≥ 5000 | 250 to 500 |  | 
Cc1cc([C@@H](C)Nc2ccc(Cl)nc2C(=O)NS(C)(=O)=O)c2nc(C3(c4ccccc4)CC3)n(C)c(=O)c2c1 [Compound 830, (R)-6-chloro-3-((1-(3,6-dimethyl-4-oxo-2-(1-phenylcyclopropyl)-3,4-dihydroquinazolin-8-yl)ethyl)amino)-N-(methylsulfonyl) picolinamide] | ≥ 5000 | 250 to 500 |  | 
Cc1cc([C@@H](C)Nc2ccc(Cl)nc2C(=O)NS(C)(=O)=O)c2nc(C3CCN(c4ccccc4)CC3)n(C)c(=O)c2c1 [Compound 831, (R)-6-chloro-3-((1-(3,6-dimethyl-4-oxo-2-(1-phenylpiperidin-4-yl)-3,4-dihydroquinazolin-8-yl)ethyl)amino)-N-(methylsulfonyl) picolinamide] | 1000 to 5000 | 250 to 500 |  | 
Cc1cc([C@@H](C)Nc2ccc(Cl)nc2C(=O)NS(C)(=O)=O)c2nc(-c3ccc4[nH]ncc4c3)n(C)c(=O)c2c1 [Compound 832, (R)-3-((1-(2-(1H-indazol-5-yl)-3,6-dimethyl-4-oxo-3,4-dihydroquinazolin-8-yl)ethyl)amino)-6-chloro-N-(methylsulfonyl) picolinamide] | 1000 to 5000 | 250 to 500 |  | 
Cc1cc([C@@H](C)Nc2ccc(Cl)nc2C(=O)NS(C)(=O)=O)c2nc(-c3ccc4c(c3)ncn4C)n(C)c(=O)c2c1 [Compound 833, (R)-6-chloro-3-((1-(3,6-dimethyl-2-(1-methyl-1H-benzo[d]imidazol-5-yl)-4-oxo-3,4-dihydroquinazolin-8-yl)ethyl)amino)-N-(methylsulfonyl) picolinamide] | 1000 to 5000 | 250 to 500 |  | 
Cc1cc([C@@H](C)Nc2ccc(Cl)nc2C(=O)NS(C)(=O)=O)c2nc(-c3ccc4cn[nH]c4c3)n(C)c(=O)c2c1 [Compound 834, (R)-3-((1-(2-(1H-indazol-6-yl)-3,6-dimethyl-4-oxo-3,4-dihydroquinazolin-8-yl)ethyl)amino)-6-chloro-N-(methylsulfonyl) picolinamide] | 1000 to 5000 | 500 to 1000 |  | 
Cc1cc([C@@H](C)Nc2ccc(Cl)nc2C(=O)NS(C)(=O)=O)c2nc(-c3ccc4cn(C)nc4c3)n(C)c(=O)c2c1 [Compound 835, (R)-6-chloro-3-((1-(3,6-dimethyl-2-(2-methyl-2H-indazol-6-yl)-4-oxo-3,4-dihydroquinazolin-8-yl)ethyl)amino)-N-(methylsulfonyl) picolinamide] | 1000 to 5000 | 250 to 500 |  | 
Cc1cc([C@@H](C)Nc2ccc(Cl)nc2C(=O)NS(C)(=O)=O)c2nc(-c3ccc4nn(C(F)F)cc4c3)n(C)c(=O)c2c1 [Compound 836, (R)-6-chloro-3-((1-(2-(2-(difluoromethyl)-2H-indazol-5-yl)-3,6-dimethyl-4-oxo-3,4-dihydroquinazolin-8-yl)ethyl)amino)-N-(methylsulfonyl) picolinamide] | 1000 to 5000 | < 250 |  | 
Cc1cc([C@@H](C)Nc2ccc(Cl)nc2C(=O)NS(C)(=O)=O)c2nc(C3CCN(c4ncc(C#N)cc4C)CC3)n(C)c(=O)c2c1 [Compound 837, (R)-6-chloro-3-((1-(2-(1-(5-cyano-3-methylpyridin-2-yl)piperidin-4-yl)-3,6-dimethyl-4-oxo-3,4-dihydroquinazolin-8-yl)ethyl)amino)-N-(methylsulfonyl) picolinamide] | 1000 to 5000 | 250 to 500 |  | 

Other lines, results leading:

IC50 [1, 3] [nM] | IC50 [2, 4] [nM] | IC50 [1, 5] [nM] | IC50 [2, 6] [nM] | SMILES
1000 to 5000 | 250 to 500 |  |  | Cc1cc([C@@H](C)Nc2ccc(Cl)nc2C(=O)NS(C)(=O)=O)c2nc(-c3ccc(-c4ccn(C)n4)cn3)n(C)c(=O)c2c1 [Compound 838, (R)-6-chloro-3-((1-(3,6-dimethyl-2-(5-(1-methyl-1H-pyrazol-3-yl)pyridin-2-yl)-4-oxo-3,4-dihydroquinazolin-8-yl)ethyl)amino)-N-(methylsulfonyl) picolinamide]
1000 to 5000 | 250 to 500 |  |  | Cc1cc([C@@H](C)Nc2ccc(Cl)nc2C(=O)NS(C)(=O)=O)c2nc(-c3cc4cn(C)nc4cn3)n(C)c(=O)c2c1 [Compound 839, (R)-6-chloro-3-((1-(3,6-dimethyl-2-(2-methyl-2H-pyrazolo[3,4-c]pyridin-5-yl)-4-oxo-3,4-dihydroquinazolin-8-yl)ethyl)amino)-N-(methylsulfonyl) picolinamide]
 |  | 1000 to 5000 | 1000 to 5000 | Cc1cc2c(=O)n(C)c(-c3ccc4nn(C)cc4c3)nc2c([C@@H](C)Nc2ccc(Cl)nc2C(=O)NS(C)(=O)=O)n1 [Compound 840, (R)-6-chloro-3-((1-(3,6-dimethyl-2-(2-methyl-2H-indazol-5-yl)-4-oxo-3,4-dihydropyrido[3,4-d]pyrimidin-8-yl)ethyl)amino)-N-(methylsulfonyl) picolinamide]
 |  | 1000 to 5000 | 250 to 500 | Cc1cc([C@@H](C)Nc2ccc(Cl)nc2C(=O)NS(C)(=O)=O)c2nc(-c3ccc4nn(C)cc4n3)n(C)c(=O)c2c1 [Compound 841, (R)-6-chloro-3-((1-(3,6-dimethyl-2-(2-methyl-2H-pyrazolo [4,3-b]pyridin-5-yl)-4-oxo-3,4-dihydroquinazolin-8-yl)ethyl)amino)-N-(methylsulfonyl) picolinamide]
 |  | 1000 to 5000 | < 250 | Cc1cc([C@@H](C)Nc2ccc(Cl)nc2C(=O)NS(C)(=O)=O)c2nc(-c3ccc4nn(C)c(C)c4c3)n(C)c(=O)c2c1 [Compound 842, (R)-6-chloro-3-((1-(2-(2,3-dimethyl-2H-indazol-5-yl)-3,6-dimethyl-4-oxo-3,4-dihydroquinazolin-8-yl)ethyl)amino)-N-(methylsulfonyl) picolinamide]
 |  | 1000 to 5000 | 250 to 500 | Cc1cc([C@@H](C)Nc2ccc(Cl)nc2C(=O)NS(C)(=O)=O)c2nc(-c3ccc(-c4nc(C)no4)nc3)n(C)c(=O)c2c1 [Compound 843, (R)-6-chloro-3-((1-(3,6-dimethyl-2-(6-(3-methyl-1,2,4-oxadiazol-5-yl)pyridin-3-yl)-4-oxo-3,4-dihydroquinazolin-8-yl)ethyl)amino)-N-(methylsulfonyl) picolinamide]
 |  | 1000 to 5000 | 250 to 500 | Cc1cc([C@@H](C)Nc2ccc(Cl)nc2C(=O)NS(C)(=O)=O)c2nc(-c3ccc4nc(C)cn4c3)n(C)c(=O)c2c1 [Compound 844, (R)-6-chloro-3-((1-(3,6-dimethyl-2-(2-methylimidazo[1,2-a]pyridin-6-yl)-4-oxo-3,4-dihydroquinazolin-8-yl)ethyl)amino)-N-(methylsulfonyl) picolinamide]
